From PubChem BioAssay AID248 (DTP/NCI, 2004)
Several values for one entry are separate records, joined by “and”; a condition that tells them apart may be missing. Equal entries are not always repeated. Inconclusive results and toxic doses are left out.

System: L1210 leukemia ip in BDF1 mice, survival T/C
Assay: NCI In Vivo Anticancer Drug Screen. Data for tumor model L1210 Leukemia (intraperitoneal) in B6D2F1 (BDF1) mice
Conditions: higher = longer survival
How it was run: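 Ratio derived from survival: compound-dosed mice over vehicle-dosed mice, all bearing a transplantable tumor.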

## Nc1nc(=O)n(C2OC(CO)C(O)C2O)cc1F (stereo not drawn)
endpoint: mean survival time, dose: 0.02 mg/kg/injection, schedule: Q#A X020 (ip), vehicle: saline
  T/C: 104 % of control
endpoint: mean survival time, dose: 0.04 mg/kg/injection, schedule: Q#A X020 (ip), vehicle: saline
  T/C: 109 % of control
endpoint: mean survival time, dose: 0.05 mg/kg/injection, schedule: Q01DX010 (ip), vehicle: saline
  T/C: 98 % of control
endpoint: mean survival time, dose: 0.09 mg/kg/injection, schedule: Q01DX010 (ip), vehicle: saline
  T/C: 102 % of control
endpoint: mean survival time, dose: 0.09 mg/kg/injection, schedule: Q#A X020 (ip), vehicle: saline
  T/C: 118 % of control
endpoint: mean survival time, dose: 0.16 mg/kg/injection, schedule: Q03DX003 (ip), vehicle: saline
  T/C: 108 % of control
endpoint: mean survival time, dose: 0.19 mg/kg/injection, schedule: Q01DX010 (ip), vehicle: saline
  T/C: 118 % of control
endpoint: mean survival time, dose: 0.31 mg/kg/injection, schedule: Q03DX003 (ip), vehicle: saline
  T/C: 108 % of control
endpoint: mean survival time, dose: 0.37 mg/kg/injection, schedule: Q#A X020 (ip), vehicle: saline
  T/C: 169 % of control
endpoint: mean survival time, dose: 0.38 mg/kg/injection, schedule: Q01DX010 (im), vehicle: saline
  T/C: 114 % of control
endpoint: mean survival time, dose: 0.38 mg/kg/injection, schedule: Q01DX010 (ip), vehicle: saline
  T/C: 110 % of control
endpoint: mean survival time, dose: 0.38 mg/kg/injection, schedule: Q01DX010 (sc), vehicle: saline
  T/C: 112 % of control
endpoint: mean survival time, dose: 0.63 mg/kg/injection, schedule: Q03DX003 (ip), vehicle: saline
  T/C: 122 % of control
endpoint: mean survival time, dose: 0.75 mg/kg/injection, schedule: Q01DX010 (im), vehicle: saline
  T/C: 120 % of control
endpoint: mean survival time, dose: 0.75 mg/kg/injection, schedule: Q#A X020 (ip), vehicle: saline
  T/C: 211 % of control
endpoint: mean survival time, dose: 1.25 mg/kg/injection, schedule: Q03DX003 (ip), vehicle: saline
  T/C: 122 % of control
endpoint: mean survival time, dose: 1.5 mg/kg/injection, schedule: Q01DX010 (ip), vehicle: saline
  T/C: 177 % of control
endpoint: mean survival time, dose: 1.5 mg/kg/injection, schedule: Q#A X020 (ip), vehicle: saline
  T/C: 217 % of control
endpoint: mean survival time, dose: 1.56 mg/kg/injection, schedule: Q01DX010 (oral), vehicle: saline
  T/C: 106 % of control
endpoint: mean survival time, dose: 2.5 mg/kg/injection, schedule: Q01DX001 (ip), vehicle: saline
  T/C: 120 % of control
endpoint: mean survival time, dose: 2.5 mg/kg/injection, schedule: Q03DX004 (ip), vehicle: saline
  T/C: 157 % of control
endpoint: mean survival time, dose: 2.5 mg/kg/injection, schedule: Q07DX002 (ip), vehicle: saline
  T/C: 111 % of control
endpoint: mean survival time, dose: 3.0 mg/kg/injection, schedule: Q01DX006 (iv), vehicle: saline
  T/C: 124 % of control
endpoint: mean survival time, dose: 3.0 mg/kg/injection, schedule: Q01DX010 (im), vehicle: saline
  T/C: 159 % of control and 166 % of control
endpoint: mean survival time, dose: 3.0 mg/kg/injection, schedule: Q01DX010 (ip), vehicle: saline
  T/C: 166 % of control
endpoint: mean survival time, dose: 3.0 mg/kg/injection, schedule: Q01DX010 (sc), vehicle: saline
  T/C: 152 % of control and 162 % of control
endpoint: mean survival time, dose: 3.12 mg/kg/injection, schedule: Q01DX015 (ip), vehicle: saline
  T/C: 195 % of control
endpoint: mean survival time, dose: 3.13 mg/kg/injection, schedule: Q01DX010 (oral), vehicle: saline
  T/C: 112 % of control
endpoint: mean survival time, dose: 4.0 mg/kg/injection, schedule: Q01DX009 (ip), vehicle: saline
  T/C: 173 % of control
endpoint: mean survival time, dose: 5.0 mg/kg/injection, schedule: Q01DX001 (ip), vehicle: saline
  T/C: 122 % of control
endpoint: mean survival time, dose: 5.0 mg/kg/injection, schedule: Q03DX004 (ip), vehicle: saline
  T/C: 157 % of control
endpoint: mean survival time, dose: 6.0 mg/kg/injection, schedule: Q01DX010 (im), vehicle: saline
  T/C: 176 % of control
endpoint: mean survival time, dose: 6.0 mg/kg/injection, schedule: Q01DX010 (ip), vehicle: saline
  T/C: 183 % of control
endpoint: mean survival time, dose: 6.0 mg/kg/injection, schedule: Q01DX010 (sc), vehicle: saline
  T/C: 178 % of control
endpoint: mean survival time, dose: 6.25 mg/kg/injection, schedule: Q01DX010 (oral), vehicle: saline
  T/C: 118 % of control
endpoint: mean survival time, dose: 8.0 mg/kg/injection, schedule: Q01DX009 (ip), vehicle: saline
  T/C: 216 % of control
endpoint: mean survival time, dose: 10.0 mg/kg/injection, schedule: Q01DX001 (ip), vehicle: saline
  T/C: 124 % of control
endpoint: mean survival time, dose: 10.0 mg/kg/injection, schedule: Q03DX004 (ip), vehicle: saline
  T/C: 160 % of control
endpoint: mean survival time, dose: 10.0 mg/kg/injection, schedule: Q03DX Z (ip), vehicle: saline
  T/C: 166 % of control
endpoint: mean survival time, dose: 12.0 mg/kg/injection, schedule: Q01DX006 (iv), vehicle: saline
  T/C: 157 % of control
endpoint: mean survival time, dose: 12.0 mg/kg/injection, schedule: Q01DX010 (im), vehicle: saline
  T/C: 217 % of control
endpoint: mean survival time, dose: 12.0 mg/kg/injection, schedule: Q01DX010 (ip), vehicle: saline
  T/C: 197 % of control
endpoint: mean survival time, dose: 12.0 mg/kg/injection, schedule: Q01DX010 (sc), vehicle: saline
  T/C: 203 % of control
endpoint: mean survival time, dose: 12.0 mg/kg/injection, schedule: Q#A X020 (ip), vehicle: saline
  T/C: 201 % of control
endpoint: mean survival time, dose: 12.5 mg/kg/injection, schedule: Q01DX010 (oral), vehicle: saline
  T/C: 153 % of control
endpoint: mean survival time, dose: 20.0 mg/kg/injection, schedule: Q01DX001 (ip), vehicle: saline
  T/C: 118 % of control
endpoint: mean survival time, dose: 20.0 mg/kg/injection, schedule: Q03DX Z (ip), vehicle: saline
  T/C: 174 % of control
endpoint: mean survival time, dose: 24.0 mg/kg/injection, schedule: Q01DX006 (iv), vehicle: saline
  T/C: 160 % of control and 191 % of control
endpoint: mean survival time, dose: 24.0 mg/kg/injection, schedule: Q01DX010 (ip), vehicle: saline
  T/C: 191 % of control
endpoint: mean survival time, dose: 24.0 mg/kg/injection, schedule: Q#A X020 (ip), vehicle: saline
  T/C: 120 % of control
endpoint: mean survival time, dose: 25.0 mg/kg/injection, schedule: Q01DX005 (ip), vehicle: saline
  T/C: 150 % of control and 160 % of control
endpoint: mean survival time, dose: 25.0 mg/kg/injection, schedule: Q01DX010 (oral), vehicle: saline
  T/C: 174 % of control
endpoint: mean survival time, dose: 40.0 mg/kg/injection, schedule: Q01DX001 (ip), vehicle: saline
  T/C: 122 % of control
endpoint: mean survival time, dose: 40.0 mg/kg/injection, schedule: Q01DX005 (ip), vehicle: saline
  T/C: 174 % of control
endpoint: mean survival time, dose: 40.0 mg/kg/injection, schedule: Q03DX Z (ip), vehicle: saline
  T/C: 198 % of control
endpoint: mean survival time, dose: 48.0 mg/kg/injection, schedule: Q01DX006 (iv), vehicle: saline
  T/C: 180 % of control
endpoint: mean survival time, dose: 48.0 mg/kg/injection, schedule: Q01DX010 (ip), vehicle: saline
  T/C: 116 % of control
endpoint: mean survival time, dose: 48.0 mg/kg/injection, schedule: Q#A X020 (ip), vehicle: saline
  T/C: 101 % of control
endpoint: mean survival time, dose: 50.0 mg/kg/injection, schedule: Q01DX001 (ip), vehicle: saline
  T/C: 124 % of control
endpoint: mean survival time, dose: 50.0 mg/kg/injection, schedule: Q01DX010 (oral), vehicle: saline
  T/C: 186 % of control
endpoint: mean survival time, dose: 64.0 mg/kg/injection, schedule: Q01DX009 (oral), vehicle: saline
  T/C: 168 % of control
endpoint: mean survival time, dose: 80.0 mg/kg/injection, schedule: Q01DX005 (ip), vehicle: saline
  T/C: 168 % of control
endpoint: mean survival time, dose: 80.0 mg/kg/injection, schedule: Q03DX004 (ip), vehicle: saline
  T/C: 180 % of control
endpoint: mean survival time, dose: 80.0 mg/kg/injection, schedule: Q03DX Z (ip), vehicle: saline
  T/C: 201 % of control
endpoint: mean survival time, dose: 96.0 mg/kg/injection, schedule: Q01DX006 (iv), vehicle: saline
  T/C: 177 % of control
endpoint: mean survival time, dose: 96.0 mg/kg/injection, schedule: Q01DX010 (ip), vehicle: saline
  T/C: 112 % of control
endpoint: mean survival time, dose: 96.0 mg/kg/injection, schedule: Q#A X020 (ip), vehicle: saline
  T/C: 103 % of control
endpoint: mean survival time, dose: 100.0 mg/kg/injection, schedule: Q01DX001 (ip), vehicle: saline
  T/C: 118 % of control
endpoint: mean survival time, dose: 100.0 mg/kg/injection, schedule: Q01DX009 (ip), vehicle: saline
  T/C: 183 % of control
endpoint: mean survival time, dose: 100.0 mg/kg/injection, schedule: Q01DX010 (oral), vehicle: saline
  T/C: 157 % of control
endpoint: mean survival time, dose: 128.0 mg/kg/injection, schedule: Q01DX001 (oral), vehicle: saline
  T/C: 110 % of control
endpoint: mean survival time, dose: 128.0 mg/kg/injection, schedule: Q01DX009 (oral), vehicle: saline
  T/C: 181 % of control
endpoint: mean survival time, dose: 160.0 mg/kg/injection, schedule: Q01DX005 (ip), vehicle: saline
  T/C: 168 % of control
endpoint: mean survival time, dose: 160.0 mg/kg/injection, schedule: Q03DX004 (ip), vehicle: saline
  T/C: 198 % of control
endpoint: mean survival time, dose: 160.0 mg/kg/injection, schedule: Q07DX002 (ip), vehicle: saline
  T/C: 154 % of control
endpoint: mean survival time, dose: 160.0 mg/kg/injection, schedule: Q07DX Z (ip), vehicle: saline
  T/C: 152 % of control
endpoint: mean survival time, dose: 192.0 mg/kg/injection, schedule: Q01DX006 (iv), vehicle: saline
  T/C: 95 % of control
endpoint: mean survival time, dose: 192.0 mg/kg/injection, schedule: Q01DX010 (im), vehicle: saline
  T/C: 110 % of control
endpoint: mean survival time, dose: 192.0 mg/kg/injection, schedule: Q01DX010 (ip), vehicle: saline
  T/C: 108 % of control
endpoint: mean survival time, dose: 192.0 mg/kg/injection, schedule: Q01DX010 (sc), vehicle: saline
  T/C: 119 % of control
endpoint: mean survival time, dose: 200.0 mg/kg/injection, schedule: Q01DX001 (ip), vehicle: saline
  T/C: 119 % of control
endpoint: mean survival time, dose: 200.0 mg/kg/injection, schedule: Q01DX009 (ip), vehicle: saline
  T/C: 93 % of control
endpoint: mean survival time, dose: 256.0 mg/kg/injection, schedule: Q01DX001 (oral), vehicle: saline
  T/C: 117 % of control
endpoint: mean survival time, dose: 320.0 mg/kg/injection, schedule: Q07DX002 (ip), vehicle: saline
  T/C: 182 % of control
endpoint: median survival time, dose: 2.0 mg/kg/injection, schedule: Q01DX009 (ip), vehicle: saline with Tween-80
  T/C: 168 % of control
endpoint: median survival time, dose: 4.0 mg/kg/injection, schedule: Q01DX009 (ip), vehicle: saline with Tween-80
  T/C: 175 % of control
endpoint: median survival time, dose: 4.0 mg/kg/injection, schedule: Q01DX009 (ip), vehicle: saline
  T/C: 160 % of control and 175 % of control
endpoint: median survival time, dose: 8.0 mg/kg/injection, schedule: Q01DX009 (ip), vehicle: saline with Tween-80
  T/C: 183 % of control
endpoint: median survival time, dose: 8.0 mg/kg/injection, schedule: Q01DX009 (ip), vehicle: saline
  T/C: 170 % of control and 187 % of control
endpoint: median survival time, dose: 16.0 mg/kg/injection, schedule: Q01DX009 (ip), vehicle: saline with Tween-80
  T/C: 186 % of control
endpoint: median survival time, dose: 16.0 mg/kg/injection, schedule: Q01DX009 (ip), vehicle: saline
  T/C: 190 % of control
endpoint: median survival time, dose: 32.0 mg/kg/injection, schedule: Q01DX009 (ip), vehicle: saline with Tween-80
  T/C: 202 % of control
endpoint: median survival time, dose: 32.0 mg/kg/injection, schedule: Q01DX009 (ip), vehicle: saline
  T/C: 160 % of control
